Measurements published in patent EP0238207B1, “Bactericidal mixtures” (PITMAN-MOORE INC., priority 1986, dated 1987).
Read-outs that look alike come from different tables or passages of the source.

Experiments:
[1] = tested on: a range of organisms; details: against a range of organisms; cited from earlier work
[2] = tested on: S. dublin strain M738; experiment: MIC by surface growth inhibition method, checkerboard two-fold dilution series; type: cell-based; details: for MIC: Salmonella enterica, M738
Procedure: Estimation of the minimum inhibitory concentrations (MICs) of Compound A and SDD, alone and together, was carried out by a surface growth inhibition method, using a "checkerboard" two-fold dilution series, with Compound A and SDD ranges of […] and 256 to 1µg/ml respectively. Thus, including the control plates, a total of 100 different combinations were used. Dilutions were made in Oxoid Isosensitest Agar with plate inoculation by an automatic inoculator using a 2µl inoculum yielding semi-confluent growth over a disc approx. 7 mm diameter. End points were judged to be the lowest concentrations completely or almost completely inhibiting growth.

[3] = tested on: S.dublin; experiment: Treatment of acute salmonellosis in calves, compound administered alone; type: in vivo; details: administered alone at dosages of up to 6 mg/kg
[4] = Serum concentrations in infected calves (Bratton-Marshall method for sulphonamide, bio-assay for Compound A); type: in vivo
Procedure: Blood samples for assay of sulphonamide by the Bratton-Marshall method and for Compound A by bio-assay were collected before and 24 hours after the first injection, 2, 5 and 24 hours after the second injection, 24 hours after the fourth injection and 2, 5 and 24 hours after the fifth injection.

[5] = tested on: Salmonella dublin strain M738; experiment: Synergy in experimental bovine salmonellosis, five repeated daily subcutaneous injections (Example 2); type: in vivo, calves; details: for Mortality: s.c., five days
Description: In planning the investigation of possible synergy between Compound A and sulphadimidine (SDD), it was decided that seven treatment groups (including an untreated control group) of eight calves each would be necessary, but because of the impossibility of housing this required total number of calves (56) at one time in the available isolation accommodation, it was planned to carry out two duplicate experiments each using seven groups of four calves.
• 1) "Sodium Sulfamethazine Injectable Solution 25%" - Cyanamid. This commercial preparation contained 250 mg/ml of sodium SDD, equivalent to 232 mg/ml of SDD. • 2) Aqueous solution of SDD, 100 mg/ml in dilute NaOH. • 3) Aqueous solution of Compound A, 20 mg/ml as the hydrochloride.
On the day of infection, Day 0, each calf received an oral dose of 50 ml of a log-phase culture of Salmonella dublin strain M738 diluted to contain an estimated 10¹⁰ organisms, using the published technique (White et al 1981a). A viable count on the inoculum was carried out.
On the basis of Day 0 (am) bodyweights the calves were randomly allocated into 7 groups of 4.
Using Day 0 bodyweights, 3 calves of identical weights to the day 0 weights of the 3 eliminated calves were allocated to the appropriate groups, and the remaining […] were randomly allocated to the 7 groups as above.
Administration of compounds in all cases was by subcutaneous injection, using different sides of the animal for Compound A and SDD when both were given in groups 4, 5 and 6. The first of five consecutive daily injections was given 43 hours after […], the other following at 24 hour intervals.

[6] = cattle older than about six weeks; cited from earlier work

Cc1cc(Cc2cnc(N)nc2N)c2cccnc2c1N(C)C [Compound A, 2,4-diamino-5-(8-dimethylamino-7-methyl-5-quinolylmethyl) pyrimidine]
in vitro antibacterial activity [1]: good | growth at 24 hours ([2]; Compound A 0.002 µg/ml, SDD 0 µg/ml): + | growth at 24 hours ([2]; Compound A 0.004 µg/ml, SDD 0 µg/ml): + | growth at 24 hours ([2]; Compound A 0.008 µg/ml, SDD 0 µg/ml): + | growth at 24 hours ([2]; Compound A 0.016 µg/ml, SDD 0 µg/ml): + | growth at 24 hours ([2]; Compound A 0.032 µg/ml, SDD 0 µg/ml): + | growth at 24 hours ([2]; Compound A 0.064 µg/ml, SDD 0 µg/ml): + | growth at 24 hours ([2]; Compound A 0.128 µg/ml, SDD 0 µg/ml): + | growth at 24 hours ([2]; Compound A 0.256 µg/ml, SDD 0 µg/ml): - | growth at 24 hours ([2]; Compound A 0.512 µg/ml, SDD 0 µg/ml): - | MIC ([2]; each substance alone, Oxoid Isosensitest Agar, read-out: MIC): 0.256 µg/mL | effect in treating acute salmonellosis (S.dublin) in calves [3]: ineffective | serum concentrations of Compound A ([4]; Group 3: Compound A alone at 6 mg/kg daily s.c.): > 0.256 µg/mL | Mortality ([5]; Group 3: Compound A alone 6 mg/kg daily): 5 out of 8 | therapeutic effect ([5]; Group 3: Compound A alone at 6 mg/kg daily): ineffective

Cc1cc(C)nc(NS(=O)(=O)c2ccc(N)cc2)n1 [SDD, sulphadimidine]
growth at 24 hours ([2]; Compound A 0 µg/ml, SDD 1 µg/ml): + | growth at 24 hours ([2]; Compound A 0 µg/ml, SDD 2 µg/ml): + | growth at 24 hours ([2]; Compound A 0 µg/ml, SDD 4 µg/ml): + | growth at 24 hours ([2]; Compound A 0 µg/ml, SDD 8 µg/ml): + | growth at 24 hours ([2]; Compound A 0 µg/ml, SDD 16 µg/ml): + | growth at 24 hours ([2]; Compound A 0 µg/ml, SDD 32 µg/ml): + | growth at 24 hours ([2]; Compound A 0 µg/ml, SDD 64 µg/ml): + | growth at 24 hours ([2]; Compound A 0 µg/ml, SDD 128 µg/ml): - | growth at 24 hours ([2]; Compound A 0 µg/ml, SDD 256 µg/ml): - | MIC [2]: 128 µg/mL | serum concentrations of SDD ([4]; Group 1: SDD alone 200/100 mg/kg daily s.c., throughout the dosing period): > 128 µg/mL | therapeutic effect ([5]; Group 1: SDD alone 200/100 mg/kg daily): therapeutically ineffective | clinical recovery of surviving calves ([5]; Group 1: SDD alone 200/100 mg/kg, three surviving calves): very slow clinical recovery | bodyweight of surviving calves ([5]; Group 1: SDD alone 200/100 mg/kg, three surviving calves, Day 21 versus Day 0): none had regained its Day 0 bodyweight by Day 21 | Mortality ([5]; Group 1: SDD alone, first dose 200 mg/kg, subsequent doses 100 mg/kg daily): 5 out of 8 | Mortality ([5]; Group 2: SDD alone 30 mg/kg daily): 5 out of 8

COc1cc(Cc2cnc(N)nc2N)cc(OC)c1OC [trimethoprim]
oral bioavailability [6]: very poor
